Experiments:
Assay in all cases: relative viability (nuclei count vs DMSO), 5 days (fraction); higher = more cells survive
[1] = compound: NS(=O)(=O)OC[C@@H]1C[C@@H](n2ccc3c(N[C@H]4CCc5ccccc54)ncnc32)C[C@@H]1O [MLN4924] + COc1cc2c(Oc3ccc(NC(=O)C4(C(=O)Nc5ccc(F)cc5)CC4)cc3F)ccnc2cc1OCCCN1CCOCC1 [Foretinib] (partner 0.25 µM)
Method in brief: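 One day after seeding in 1536-well plates, lung cancer cell lines were dosed by pin tool. Dosing was either single-drug or a fixed anchor-drug dose plus five library-drug doses (not always all listed) in √10 steps. After 5 days, nuclei were stained in one fix-and-stain step and counted on 4× images, and relative viability is the nuclei count of treated wells over that of vehicle wells, given as the median of duplicate plates.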

[2] = compound: C1CC(C1)(C(=O)O)C(=O)O.[NH2-].[NH2-].[Pt+2] [Carboplatin]
Method in brief: (§1)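 MetaXpress counted nuclei in 4× images of lung cancer cell lines that had been fixed, permeabilised and Hoechst-stained in one step. Before that, cells in 1536-well plates were kept overnight at 37 °C, pinned with five √10-spaced library-drug doses on vehicle-anchored plates, and cultured 5 days without medium change. Viability takes treated-well nuclei over vehicle-well nuclei and uses the median across plates. Plates were accepted only at control CV below 25% and at least one doubling.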

[3] = compound: CC[C@H](C)N1C=C(C2=C(C=C(C=C21)C3=CN=C(C=C3)N4CCNCC4)C(=O)NCC5=C(C=C(NC5=O)C)C)C [GSK126]
Method in brief: as §1

[4] = compound: NS(=O)(=O)OC[C@@H]1C[C@@H](n2ccc3c(N[C@H]4CCc5ccccc54)ncnc32)C[C@@H]1O [MLN4924]
Method in brief: as §1

| Cell Line | relative viability ([1]; first compound 0.04 µM) | relative viability ([1]; first compound 0.1265 µM) | relative viability ([1]; first compound 0.4 µM) | relative viability ([1]; first compound 1.265 µM) | relative viability ([1]; first compound 4 µM) | relative viability ([2]; 0.08 µM) | relative viability ([2]; 0.253 µM) | relative viability ([2]; 0.8 µM) | relative viability ([2]; 2.53 µM) | relative viability ([2]; 8 µM) | relative viability ([3]; 0.08 µM) | relative viability ([3]; 0.253 µM) | relative viability ([3]; 0.8 µM) | relative viability ([3]; 2.53 µM) | relative viability ([3]; 8 µM) | relative viability ([4]; 0.04 µM) | relative viability ([4]; 0.1265 µM) | relative viability ([4]; 0.4 µM) | relative viability ([4]; 1.265 µM) | relative viability ([4]; 4 µM) |
| --- | --- | --- | --- | --- | --- | --- | --- | --- | --- | --- | --- | --- | --- | --- | --- | --- | --- | --- | --- | --- |
| NCI-H1703 | 0.267 | 0.226 | 0.19 | 0.173 | 0.248 | 1.27 | 1.1 | 0.998 | 1.05 | 1.01 | 1.21 | 0.834 | 0.96 | 1.04 | 1.13 | 0.43 | 0.314 | 0.255 | 0.136 | 0.141 |
| NCI-H1793 | 0.822 | 1.08 | 0.957 | 0.461 | 0.256 | 0.968 | 0.98 | 0.908 | 0.906 | 1.1 | 1.07 | 0.948 | 0.826 | 1.11 | 0.855 | 0.91 | 0.982 | 1.01 | 0.473 | 0.361 |
| NCI-H522 | – | – | – | – | – | 1.12 | 0.963 | 0.922 | 0.873 | 0.881 | 1.1 | 0.929 | 1.01 | 0.977 | 0.989 | 0.87 | 0.777 | 0.515 | 0.397 | 0.426 |
| LOU-NH91 | 0.945 | 0.952 | 0.896 | 0.539 | 0.413 | 1.16 | 0.938 | 0.96 | 0.969 | 0.936 | 0.966 | 0.978 | 0.95 | 1.06 | 0.985 | 0.997 | 1.13 | 0.929 | 0.543 | 0.563 |
| NCI-H1355 | 0.943 | 0.91 | 0.889 | 0.472 | 0.201 | 1.09 | 1.05 | 0.989 | 1 | 0.876 | 1.08 | 0.982 | 0.975 | 1.06 | 1.01 | 0.976 | 1.01 | 0.783 | 0.369 | 0.34 |
| NCI-H441 | 0.923 | 0.79 | 0.515 | 0.238 | 0.183 | 0.957 | 1.08 | 0.925 | 1 | 0.801 | 1.23 | 0.954 | 0.986 | 1.05 | 0.995 | 0.943 | 0.822 | 0.512 | 0.148 | 0.185 |
| NCI-H1395 | 0.951 | 0.818 | 0.538 | 0.41 | 0.362 | 1.16 | 0.885 | 0.833 | 0.749 | 0.766 | 1.03 | 0.926 | 0.893 | 1 | 0.957 | 0.868 | 0.951 | 0.618 | 0.354 | 0.381 |
| NCI-H2023 | 0.987 | 0.719 | 0.406 | 0.0781 | 0.0729 | 1.1 | 1.08 | 0.959 | 0.572 | 0.249 | 1.13 | 1.04 | 1.02 | 1.22 | 1.09 | 0.986 | 0.739 | 0.207 | 0.0741 | 0.0639 |
| NCI-H1666 | 1.02 | 0.696 | 0.541 | 0.304 | 0.346 | 1.03 | 1.02 | 0.987 | 0.913 | 0.797 | 0.966 | 1.03 | 0.984 | 0.95 | 1.07 | 1.02 | 0.915 | 0.632 | 0.35 | 0.38 |
| HCC-15 | 0.688 | 0.219 | 0.183 | 0.109 | 0.0915 | 1.03 | 1.05 | 0.964 | 0.94 | 0.864 | 1.07 | 1.03 | 0.988 | 1.01 | 0.909 | 0.62 | 0.483 | 0.158 | 0.0986 | 0.103 |
| NCI-H1648 | – | – | – | – | – | 1.13 | 0.878 | 0.871 | 0.6 | 0.813 | 0.932 | 0.783 | 1.07 | 1.2 | 0.725 | 0.635 | 0.448 | 0.329 | 0.246 | 0.32 |
| NCI-H3122 | 0.903 | 0.385 | 0.232 | 0.106 | 0.0762 | 1.01 | 1.01 | 1.02 | 1.01 | 0.968 | 1.03 | 1 | 0.966 | 1.02 | 1 | 0.92 | 0.585 | 0.325 | 0.139 | 0.135 |
| 201T | 1.23 | 0.842 | 0.561 | 0.194 | 0.175 | 1.01 | 0.994 | 1.03 | 0.971 | 0.9 | 1.03 | 1.01 | 1.02 | 1.06 | 1.07 | 1.09 | 0.989 | 0.73 | 0.375 | 0.307 |
| RERF-LC-KJ | 0.745 | 0.482 | 0.247 | 0.202 | 0.216 | 0.978 | 1.02 | 0.939 | 0.88 | 0.702 | 1.12 | 1.1 | 1.02 | 1.01 | 1.05 | 0.879 | 0.738 | 0.233 | 0.211 | 0.228 |
| ChaGo-K-1 | 0.785 | 0.503 | 0.336 | 0.244 | 0.22 | 0.989 | 0.959 | 0.93 | 0.818 | 0.614 | 1.01 | 1.03 | 0.973 | 1.05 | 1.02 | 0.858 | 0.833 | 0.503 | 0.238 | 0.23 |
| HCC-44 | – | – | – | – | – | 1.04 | 0.92 | 0.949 | 0.915 | 0.723 | 1.03 | 1 | 1.01 | 0.869 | 1.05 | 0.635 | 0.683 | 0.219 | 0.217 | 0.225 |
| NCI-H1792 | – | – | – | – | – | 1.07 | 0.918 | 0.83 | 0.773 | 0.723 | 0.998 | 0.837 | 1.04 | 0.934 | 0.879 | 0.929 | 0.954 | 1.1 | 0.412 | 0.4 |

— the supplement of paper PMC10307832
